Measurements from patent US10919844B2, “Antibacterials and/or modulators of biofilm formation and methods of using the same” (Indiana University Research and Technology Corporation, priority 2015, dated 2021).
Entries after “also recorded” stand apart in the source; their conditions may differ.

Experiments:
Pseudomonas aeruginosa = assay: P. aeruginosa biofilm formation assay (K357 biofilm assay, crystal violet OD readout); format: cell-based; conditions: for activity in preliminary screens: FIG. 1, compounds in red; for activity in the Biofilm Assay: FIG. 23; for activity of purified sample in the biofilm assay: FIGS. 26-28
Excerpt: A straightforward biological assay was developed to provide for the study these important bacterial biofilm communities. This assay also provided an efficient means for screening for compounds that have an effect on bacterial growth and/or biofilm formation.
The racemic amino acid derivatives 1 (synthesized in row A of each Bill-Board) are then screened for biological activity (antibacterial activity in a Kirby-Bauer disc plate assay) and/or K357 laboratory (assay for biofilm formation by Pseudomonas aeruginosa).
Referring now to FIG. 3, reproducible P. aeruginosa Biofilm Assays were carried out using newly synthesized twenty-one “unnatural” amino acids. See George A. O'Toole, Microtiter Dish Biofilm Formation Assay, J. VIS EXP. 2011; (47): 2437, disclosures of which are incorporated by reference in its entirety to the extent that they are not inconsistent with the explicit teachings of this specification.
Referring to FIGS. 34-35, all newly synthesized compounds prepared according to the schemes described above were assayed for biofilm formation in multiplicate 24 well plates at a screening dose of 20 μg/mL using crystal violet optical density (OD) readings as the readout. Results were expressed as % biofilm formation relative to a control (control=bacteria alone=100% biofilm formation). The procedure for the biofilm assay was the same as that used by students in the K357 biofilm laboratory.
Referring now to FIGS. 36-38, all compounds assayed in either 96 well or 24 well plates at a screening dose of either 20 or 40 μg/mL, using a biofilm assay with crystal violet optical density (OD) readings as the readout. Results were expressed as % biofilm formation (control=bacteria alone=100% biofilm formation). The procedure for the biofilm assay was the same as that used by students in the K357 biofilm laboratory.

[1] = water-solubility noted during extractive work-up; format: physicochemical; conditions: basic aqueous phase, extraction with dichloromethane

SMILES	activity in preliminary screens (Pseudomonas aeruginosa)	activity in the Biofilm Assay (Pseudomonas aeruginosa)	potency in modulating/inhibiting biofilm formation (SAR studies) (Pseudomonas aeruginosa)	activity of purified sample in the biofilm assay (Pseudomonas aeruginosa)	potency in the biofilm assay compared with tobramycin (Pseudomonas aeruginosa; FIG. 24, comparator tobramycin)	activity of un-purified samples in the K357 biofilm assay (Pseudomonas aeruginosa)	water-solubility [1]
NC(Cc1cccc(F)c1)C(=O)O (stereo not shown) [Compound 3-F, 2-Amino-3-(3-fluorophenyl)propanoic acid]	showed activity	showed activity	potent activity	active in a dose dependent manner	–	–	–
NC(Cc1ccc(F)cc1)C(=O)O (stereo not shown) [Compound 4-F, 2-Amino-3-(4-fluorophenyl)propanoic acid]	showed activity	showed activity	potent activity	active in a dose dependent manner; also recorded: confirmed this activity	as potent as tobramycin	active	–
NC(Cc1ccc(F)cc1)C(=O)N1CCCC1 (stereo not shown) [Compound 5p, 2-Amino-3-(4-fluorophenyl)-1-(pyrrolidin-1-yl)propan-1-one]	–	–	–	–	–	–	Appreciable water-solubility
NC(=O)C(N)Cc1ccc(F)cc1 (stereo not shown) [4-fluorophenylalanine amide, 2-Amino-3-(4-fluorophenyl)propanamide]	–	–	very potent inhibitor	–	–	–	–
NC(Cc1ccc(F)c(F)c1)C(=O)O (stereo not shown) [3,4-F2, 2-Amino-3-(3,4-difluorophenyl)propanoic acid]	–	showed activity	potent activity	active in a dose dependent manner	–	–	–
NC(Cc1ccccc1F)C(=O)O (stereo not shown) [Compound 2-F, 2-Amino-3-(2-fluorophenyl)propanoic acid]	showed activity	showed activity	potent activity	active in a dose dependent manner	–	active	–
NC(Cc1ccc(F)cc1)C(=O)NCCN1CCOCC1 (stereo not shown) [Compound 5n, 2-Amino-3-(4-fluorophenyl)-N-(2-morpholinoethyl)propanamide]	–	–	–	–	–	–	Appreciable water-solubility
N[C@@H](Cc1ccc(I)cc1)C(=O)O [Compound 4-I]	showed activity	–	–	–	–	–	–
